Measured values from ChEMBL document CHEMBL1201862, “PubChem BioAssay data set” (2004).
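Results reflect a 48-hour exposure of cells in 96-well plates to compound at five concentrations. GI50 is the concentration that inhibits growth by half.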 The source made the active and inactive calls. Cut-off read from the data, not from the text of the source: active = GI50 up to about 1.1 µM and inactive = higher.

Columns and labels:
Assay in all cases: NCI-60 cell line screen, 48 h
A549 = system: A549
ACHN = system: ACHN
CAKI-1 = system: CAKI-1
HL-60 = system: HL-60
MDA-MB-435 = system: MDA-MB-435
MDA-N = system: MDA-N
Malme-3M = system: Malme-3M
NCI-H226 = system: NCI-H226
NCI-H23 = system: NCI-H23
OVCAR-3 = system: OVCAR-3
OVCAR-5 = system: OVCAR-5
OVCAR-8 = system: OVCAR-8
SF-268 = system: SF-268
SF-295 = system: SF-295
SNB-19 = system: SNB-19
SNB-75 = system: SNB-75
TK-10 = system: TK-10
SK-MEL-2 = system: SK-MEL-2
SN12C = system: SN12C
T47D = system: T47D

Measured: GI50

Cc1ccc(NC(S)=Nc2c(C)n(C)n(-c3ccccc3)c2=O)cc1
inactive: A549 > 100 µM | ACHN > 100 µM | CAKI-1 > 100 µM | HL-60 32.2 µM | MDA-MB-435 > 100 µM | MDA-N > 100 µM | Malme-3M > 100 µM | NCI-H226 > 100 µM | NCI-H23 > 100 µM | OVCAR-3 > 100 µM | OVCAR-5 > 100 µM | OVCAR-8 > 100 µM | SF-268 > 100 µM | SF-295 > 100 µM | SNB-19 > 100 µM | SNB-75 > 100 µM | TK-10 > 100 µM

O=C1CCC(Cc2ccc(Cl)cc2Cl)C(=O)N1 (stereo unspecified)
inactive: A549 > 100 µM | ACHN > 100 µM | CAKI-1 > 100 µM | HL-60 > 100 µM | MDA-MB-435 > 100 µM | Malme-3M > 100 µM | NCI-H226 > 100 µM | NCI-H23 > 100 µM | OVCAR-3 > 100 µM | OVCAR-5 > 100 µM | OVCAR-8 > 100 µM | SF-268 82.4 µM | SF-295 > 100 µM | SK-MEL-2 > 100 µM | SN12C > 100 µM | SNB-19 > 100 µM | SNB-75 64.6 µM | T47D 80.4 µM | TK-10 > 100 µM

COc1cc2c(c(OC)c1OC)C(=O)[C@H](O)[C@H]2NC(N)=O
inactive: A549 > 100 µM | ACHN 34.1 µM | CAKI-1 90.6 µM | HL-60 90.8 µM | MDA-MB-435 > 100 µM | MDA-N > 100 µM | Malme-3M > 100 µM | NCI-H226 > 100 µM | NCI-H23 53.8 µM | OVCAR-3 82 µM | OVCAR-5 76.7 µM | OVCAR-8 > 100 µM | SF-268 > 100 µM | SF-295 > 100 µM | SN12C > 100 µM | SNB-19 > 100 µM | SNB-75 23.3 µM | TK-10 > 100 µM

CC1=C(C(N)=O)C(c2ccncc2)C(C#N)C(=O)N1 (stereo unspecified)
inactive: ACHN > 100 µM | CAKI-1 > 100 µM | HL-60 > 100 µM | MDA-MB-435 > 100 µM | NCI-H23 > 100 µM | SF-268 > 100 µM | SF-295 > 100 µM | SK-MEL-2 > 100 µM | SNB-19 > 100 µM | SNB-75 > 100 µM | T47D > 100 µM | TK-10 > 100 µM

COc1cccc(NC(=O)c2c(N)n[nH]c2SC)c1
inactive: A549 > 100 µM | ACHN > 100 µM | CAKI-1 > 100 µM | HL-60 > 100 µM | MDA-MB-435 > 100 µM | MDA-N > 100 µM | Malme-3M > 100 µM | NCI-H226 > 100 µM | OVCAR-5 > 100 µM | OVCAR-8 > 100 µM | SF-268 > 100 µM | SF-295 > 100 µM | SK-MEL-2 > 100 µM | SN12C > 100 µM | SNB-19 > 100 µM | SNB-75 > 100 µM | TK-10 > 100 µM

CSC(=S)NN=C1CCCCC1
inactive: A549 26.7 µM | ACHN 21 µM | CAKI-1 20.1 µM | MDA-MB-435 18.7 µM | Malme-3M 14.6 µM | NCI-H226 13.9 µM | NCI-H23 29.9 µM | OVCAR-3 22.3 µM | OVCAR-8 8.93 µM | SF-268 38.5 µM | SF-295 28.4 µM | SK-MEL-2 52.6 µM | SN12C 24.4 µM | SNB-19 96.6 µM | SNB-75 50.6 µM | T47D 55.1 µM | TK-10 24.9 µM

CC(C)=Nn1cnc(C(=N)C#N)c1N
inactive: A549 > 100 µM | ACHN > 100 µM | CAKI-1 > 100 µM | HL-60 > 100 µM | MDA-N > 100 µM | Malme-3M > 100 µM | NCI-H226 > 100 µM | NCI-H23 > 100 µM | OVCAR-3 > 100 µM | OVCAR-5 > 100 µM | OVCAR-8 > 100 µM | SF-268 > 100 µM | SF-295 29.4 µM | SK-MEL-2 > 100 µM | SNB-19 > 100 µM | SNB-75 37.1 µM | TK-10 > 100 µM

CCOC(=O)C1=C(C)NC(=O)NC1c1ccc(N(CCCl)CCCl)cc1Cl (stereo unspecified)
inactive: A549 13.7 µM | ACHN 14.5 µM | CAKI-1 17.2 µM | HL-60 1.73 µM | MDA-MB-435 19 µM | Malme-3M 14.9 µM | NCI-H226 15.2 µM | NCI-H23 18.7 µM | OVCAR-3 15.5 µM | OVCAR-5 17.9 µM | OVCAR-8 12.9 µM | SF-268 15.5 µM | SF-295 15.8 µM | SK-MEL-2 16.3 µM | SN12C 16.3 µM | SNB-19 17.3 µM | SNB-75 14.9 µM | T47D 5.77 µM | TK-10 18.3 µM

CC(=O)O[C@H]1C(=O)[C@@]2(C)C(C(OC(=O)c3ccccc3)C3[C@@H](O)C(OC(=O)[C@@H](O)[C@H](NC(=O)c4ccccc4)c4ccc(C(F)(F)F)cc4)C(C)=C1C3(C)C)[C@]1(OC(C)=O)CO[C@@H]1C[C@@H]2O (stereo partly specified)
inactive: A549 17.9 µM | ACHN > 25 µM | CAKI-1 > 25 µM | HL-60 7.98 µM | Malme-3M > 25 µM | NCI-H226 > 25 µM | NCI-H23 > 25 µM | OVCAR-3 17.7 µM | OVCAR-5 > 25 µM | OVCAR-8 > 25 µM | SF-268 > 25 µM | SF-295 > 25 µM | SK-MEL-2 > 25 µM | SN12C > 25 µM | SNB-19 > 25 µM | SNB-75 7.71 µM | TK-10 > 25 µM

COC(=O)CCC(C)C1CCC2C3C(C[C@H](OC(C)=O)[C@]12C)[C@@]1(C)CCC2(C[C@H]1C[C@H]3OC(C)=O)OOC1(CC[C@]3(C)C4C[C@H](OC(C)=O)[C@]5(C)C(C(C)CCC(=O)OC)CCC5C4[C@H](OC(C)=O)C[C@@H]3C1)OO2 (stereo partly specified)
inactive: A549 91.8 µM | ACHN 33.5 µM | CAKI-1 24 µM | HL-60 38.3 µM | MDA-MB-435 > 100 µM | MDA-N > 100 µM | Malme-3M > 100 µM | NCI-H226 66.8 µM | NCI-H23 84.7 µM | OVCAR-3 > 100 µM | OVCAR-5 > 100 µM | OVCAR-8 > 100 µM | SF-268 92 µM | SF-295 78.7 µM | SK-MEL-2 > 100 µM | SN12C 83.2 µM | SNB-19 > 100 µM | SNB-75 68.4 µM | TK-10 > 100 µM

O=C(c1ccc([N+](=O)[O-])cc1)C(Br)C(Br)c1ccnc2ccccc12 (stereo unspecified)
inactive: A549 8.28 µM | ACHN 4.61 µM | CAKI-1 12.2 µM | HL-60 2.8 µM | MDA-MB-435 2.98 µM | Malme-3M 12.5 µM | NCI-H226 10.9 µM | NCI-H23 2.55 µM | OVCAR-3 6.32 µM | OVCAR-5 16.5 µM | OVCAR-8 9.08 µM | SF-268 13 µM | SF-295 9.06 µM | SK-MEL-2 12.6 µM | SN12C 4.46 µM | SNB-19 5.98 µM | SNB-75 4.06 µM | T47D 5.96 µM | TK-10 4.58 µM
